From EP0039059A2, “Anti-inflammatory drugs and their application” (F. HOFFMANN-LA ROCHE & CO. Aktiengesellschaft, priority 1980, dated 1981)

Columns and labels:
[1] = tested on: Krotonöl-Entzündung in der Maus; assay: Croton oil inflammation in the mouse (ear punch weight); format: in vivo, Mäusen (Charles River CD-1); conditions: for Gewicht der Ohrstücke in mg: croton oil alone 19,7±0,6, vehicle without croton oil 7,2; for Hemmung in %: topical, mouse ear, 6 h
Method: Eine Lösung aus 0,1 Teilen Krotonöl, 1 Teil destilliertem Wasser, 4 Teilen Pyridin und 4,9 Teilen Diäthyläther (Volumenteile), welche die Testverbindung enthält, wird topisch auf Ohren von 21 Tage alten männlichen Mäusen (Charles River CD-1) gegeben (25 ul). Verschiedene Gruppen von Mäusen dienten als Kontrollgruppen (Trägermaterial-Gruppe und Krotonöl-Gruppe). Nach 6 Stunden wird das Gewicht der Ohrstücke bestimmt, das in erster Linie ein Mass für die Oedem-Komponente der Entzündung ist. Verminderung des Gewichtes von Ohrstücken, welche von Mäusen erhalten wurden, welche mit der Testverbindung und dem Reizmittel behandelt worden sind, verglichen mit dem Gewicht von Ohrstücken, die von Mäusen erhalten wurden, die nur mit dem Reizmittel behandelt worden sind, zeigt entzündungshemmende Wirkung an (Endocrinology 77, 625-634, 1965; Clin. Pharm. Exp. Therap. 16, 900-904, 1974).
Die Verbindung E wird bei 3 verschiedenen Dosierungen im Krotonöl-Entzündungs-Test in der Maus auf ihre topisch entzündungshemmende Wirkung hin geprüft. Ebenfalls getestet werden Hydrocortison, ein bekanntes topisch entzündungshemmendes Corticosteroid, und eine Reihe von bekannten Verbindungen, welche systemisch entzündungshemmend wirken und nicht zur Klasse der Steroide gehören. Die Testresultate (Hemmung in Prozenten) sind in der unten stehenden Tabelle angegeben. Wie man diesen Resultaten entnehmen kann, entfaltet die Verbindung E eine vergleichbare Aktivität wie Hydrocortison, währenddem die anderen Verbindungen, welche nicht zur Klasse der Steroide gehören, in wesentlich höheren Dosierungen verabreicht werden müssen, um eine vergleichbare Hemmung zu bewirken, wie die Verbindung E und Hydrocortison.
Die entzündungshemmende Wirkung der Verbindung E alleine oder in Kombination mit 4-(3-Butoxy-4-methoxybenzyl)-2-imidazolidinon wird im Krotonöl-Test an der Maus bestimmt. Die Verbindung E wird bei verschiedenen Konzentrationen verwendet. 4-(3-Butoxy-4-methoxybenzyl)-2-imida- zolidinon wird, sofern vorhanden, in einer Konzentration von 5 Gewichtsprozenten (bezogen auf das Gewicht der applizierten Lösung) eingesetzt. Die Testresultate sind in der unten stehenden Tabelle aufgeführt.

[2] = tested on: Baumwollkügelchen-Granuloma; assay: Cotton pellet granuloma method in the rat; format: in vivo, Ratten (Charles River CD); conditions: s.c. implant, 72 h; for durchschnittliches Nettogewicht der Kügelchen in mg trocken: ethanol vehicle 32.6; for durchschnittliches Nettogewicht der Kügelchen in mg feucht: ethanol vehicle 392.5
Method: Man löst die Testverbindung in einem geeigneten Lösungsmittel und appliziert jeweils 0,1 ml dieser Lösung auf einheitliche, vorher gewogene Baumwollkügelchen, die man aus Baumwolltampons herausgeschnitten hat. Man trocknet die Baumwollkügelchen bei Raumtemperatur. 2 mit der Testverbindung imprägnierte Kügelchen werden auf dem Dorsum von 5 Wochen alten männlichen Ratten (Charles River CD) subcutan inplantiert. 72 Stunden später werden die Kügelchen entfernt. Man bestimmt das Feucht- und Trockengewicht und korrigiert um das Tara der Kügelchen. Vergleicht man nun die Gewichte der Granulomata, die man von mit der Testverbindung imprägnierten Kügelchen erhalten hat, mit den Gewichten der Granulomata, die man von nur mit Trägermaterial imprägnierten Kügelchen erhalten hat, miteinander, so zeigt eine Abnahme des Gewichtes entzündungshemmende Wirkung an (Endocrinology 60, 153-160, 1957).
Die topisch entzündungshemmenden Wirkungen der Verbindung E und Hydrocortison werden durch Verwendung des Baumwollkügelchen-Granuloma-Verfahrens an der Ratte bestimmt. Die in der unten stehenden Tabelle angegebenen Testresultate zeigen, dass die Verbindung E bei Dosierungenen von 90 und 270 µg/0,1 ml grösser ist als die Akti- vität von Hydrocortison (niedrigere Feucht- und Trockengewichte).

[3] = tested on: Oxazolon-Entzündung in vorsensibilisierten Mäusen; assay: Oxazolone inflammation in presensitised mice (ear punch weight); format: in vivo, Mäuse (Charles River CD-1); conditions: topical, mouse ear, 24 h
Method: 21 Tage alte männliche Mäuse (Charles River CD-1) werden mit Oxazolon sensibilisiert, indem man 400 ug Oxazolon in 20 ul Aceton topisch auf das Scrotum appliziert.. Eine Woche später werden 10 ul Aceton oder 200 µg Oxazolon topisch auf die innere Oberfläche des Ohres und die Testverbindung in 10 µl Aceton auf die äussere Oberfläche des Ohres appliziert. Verschiedene Gruppen von Mäusen dienten als Kontrollgruppen (Trägermaterial-Gruppe und Oxazolon-Gruppe). Das Gewicht der Ohrstücke wird 24 Stunden später bestimmt. Verminderung des Gewichtes der Ohrstücke, erhalten aus Mäusen, welche mit der Testverbindung und mit Oxazolon behandelt worden sind, verglichen mit dem Gewicht der Ohrstücke, erhalten aus Mäusen, welche mit Oxazolon alleine behandelt worden sind, zeigt entzündungshemmende Wirkungen (Br. J. Pharmacol. 43, 403-408, 1971).
Die topisch entzündungshemmenden Wirkungen der Verbindung E, Hydrocortison und Indomethacin werden bei verschiedenen Dosierungen im Oxazolon-Entzündungs-Test in vorsensibilisierten Mäusen bestimmt. Die Testresultate (Hemmung in %) sind in der untenstehenden Tabelle angegeben.

[4] = tested on: Cantharidin-Entzündung in der Ratte; assay: Cantharidin inflammation in the rat (ear punch weight); format: in vivo, Ratten (Charles River CD); conditions: 100 µg/0,1 ml topical, compound given 24 h after cantharidin, autopsy 72 h
Method: Eine Lösung aus einem Teil Aethanol, 1,5 Teilen Collodion, 2 Teilen Aceton und 3 Teilen Diäthyläther (Volumenteile), welche 400 ug Cantharidin/0,1 ml und die Testverbindung in der gewünschten Menge enthält, wird topisch auf die äussere Oberfläche von Ohren von 21 Tage alten männlichen Ratten (Charles River CD) gegeben (0,1 ml). Andere Gruppen von Ratten werden mit Trägermaterial alleine, mit Cantharidin alleine und mit Cantharidin plus Testverbindung behandelt. Wo in den Beispielen angegeben, wird die Testverbindung 24 Stunden nach Verabreichung von Cantharidin verabreicht. 72 Stunden nach Verabreichung von Cantharidin wird eine Autopsie durchgeführt. Aus dem Ohr werden an der behandelten Stelle einheitliche Stücke herausgestanzt und gewogen. Aus den Gewichtsveränderungen lassen sich die Auswirkungen auf den Entzündungsprozess ermitteln, und zwar sowohl für die Flüssigkeits- als auch für die Gewebskomponente. Eine Reduktion des Gewichtes von Hautstücken, die man aus Ratten erhalten hat, welche mit dem Reizmittel und der Testverbindung behandelt worden sind, verglichen mit dem Gewicht von Hautstücken, welche man von Ratten erhalten hat, die nur mit dem Reizmittel behandelt worden sind, zeigt eine entzündungshemmende Wirkung an (J. Invest. Dermatol. 68, 161-164, 1977).
Eine Reihe von Verbindungen der allgemeinen Formel I werden im Cantharidin-Entzündungs-Test in der Ratte auf ihre topisch entzündungshemmenden Wirkungen hin ge- testet. Jede Verbindung wird bei 5 verschiedenen Dosierungen getestet. Die in der nachfolgenden Tabelle ange- gebenen Testresultate (in %) geben an, um wieviel die durch Cantharidin bewirkte Zunahme des Gewichtes der Ohrstücke durch die jeweilige Testverbindung reduziert wird: • [formula]
Die topisch entzündungshemmende Wirkung der Verbindung E wird bei einer Dosierung von 100 µg/0,1 ml im Cantharidin- Entzündungs-Test in der Ratte bestimmt, wobei man adrenalektomierte und intakte Ratten verwendet. Wie man den Testresultaten in der untenstehenden Tabelle entnehmen kann, entfaltet die Verbindung E an der adrenalektomierten Ratte etwa die gleich grosse Wirkung wie an der intakten Ratte. Dies zeigt an, dass der primäre Wirkungsmechanismus nicht in der Stimulierung der Nebennierenrinde besteht.

[5] = pellets impregnated with 90 µg/0.1 ml
[6] = pellets impregnated with 270 µg/0.1 ml

CCCCOc1cc(CC2CNC(=O)N2)ccc1OC (stereo not drawn) [4-(3-Butoxy-4-methoxybenzyl)-2-imidazolidinon]
Gewicht der Ohrstücke in mg ([1]; 5% imidazolidinone, Verbindung E 0 µg/0,1 ml): 17,6±1,0 mg
entzündungshemmende Wirkung ([1]; alone, at concentrations of 5%, test not given): nur wenig oder gar keine entzündungshemmende Wirkung
Einfluss auf die entzündungshemmende Wirkung der Verbindung E ([1]; imidazolidinone at 5% combined with Verbindung E): potenziert

CC(=O)Oc1ccccc1C(=O)O [Acetylsalicyl säure]
Hemmung in % ([1]; dose 1250 µg/25 µl): 28%
Hemmung in % ([1]; dose 2500 µg/25 µl): 36%
Hemmung in % ([1]; dose 5000 µg/25 µl): 78%
Hemmung in % ([1]; dose 10000 µg/25 µl): 88%

CC(C(=O)O)c1cccc(Oc2ccccc2)c1 (stereo not drawn) [Fenoprofen]
Hemmung in % ([1]; dose 1250 µg/25 µl): 50%
Hemmung in % ([1]; dose 2500 µg/25 µl): 71%

C[C@]12CCC(=O)C=C1CC[C@@H]1[C@@H]2[C@@H](O)C[C@@]2(C)[C@H]1CC[C@]2(O)C(=O)CO [Hydrocortison]
durchschnittliches Nettogewicht der Kügelchen in mg trocken [2, 5]: 37.7 mg
durchschnittliches Nettogewicht der Kügelchen in mg feucht [2, 5]: 406.5 mg
durchschnittliches Nettogewicht der Kügelchen in mg trocken [2, 6]: 20.3 mg
durchschnittliches Nettogewicht der Kügelchen in mg feucht [2, 6]: 286.6 mg
Hemmung in % ([3]; dose 50 µg/10 µl): 24%
Hemmung in % ([3]; dose 200 µg/10 µl): 49%
Hemmung in % ([1]; dose 50 µg/25 µl): 53%
Hemmung in % ([1]; dose 125 µg/25 µl): 77%
Hemmung in % ([1]; dose 250 µg/25 µl): 98%

COc1ccc2c(c1)c(CC(=O)O)c(C)n2C(=O)c1ccc(Cl)cc1 [Indomethacin]
Hemmung in % ([3]; dose 500 µg/10 µl): 32%
Hemmung in % ([3]; dose 1000 µg/10 µl): 59%

COc1ccc2cc([C@H](C)C(=O)O)ccc2c1 [Naproxen]
Hemmung in % ([1]; dose 1250 µg/25 µl): 60%
Hemmung in % ([1]; dose 2500 µg/25 µl): 87%

CN1CCN(C2=Cc3ccccc3Sc3ccc(Cl)cc32)CC1 [Verbindung E, 8-Chlor-10-(4-methylpiperazino)dibenzo-[b,f]thiepin]
durchschnittliches Nettogewicht der Kügelchen in mg trocken [2, 5]: 20.1 mg
durchschnittliches Nettogewicht der Kügelchen in mg feucht [2, 5]: 285.2 mg
durchschnittliches Nettogewicht der Kügelchen in mg trocken [2, 6]: 16.9 mg
durchschnittliches Nettogewicht der Kügelchen in mg feucht [2, 6]: 234.9 mg
Hemmung in % ([3]; dose 100 µg/10 µl): 51%
Hemmung in % ([3]; dose 500 µg/10 µl): 75%
Hemmung in % ([4]; adrenalectomised rats): 49%
Gewicht der Ohrstücke ([4]; adrenalectomised rats, vehicle 11.4±0.2, cantharidin alone 25.5±1.0): 18.6±0.6
Hemmung in % ([4]; intact rats): 55%
Gewicht der Ohrstücke ([4]; intact rats, vehicle 12.0±0.4, cantharidin alone 25.2±1.5): 18.0±1.1
Gewicht der Ohrstücke in mg ([1]; Verbindung E alone, 100 µg/0,1 ml): 15,9±0,8 mg
Gewicht der Ohrstücke in mg ([1]; Verbindung E alone, 400 µg/0,1 ml): 11,8±0,6 mg
Hemmung in % ([1]; dose 100 µg/25 µl): 48%
Hemmung in % ([1]; dose 200 µg/25 µl): 67%
Hemmung in % ([1]; dose 500 µg/25 µl): 91%

Phenylbutazon
Hemmung in % ([1]; dose 1250 µg/25 µl): 33%
Hemmung in % ([1]; dose 2500 µg/25 µl): 69%
